Reference: patent US10167262B2, “Herbicidal substituted 3-arylpyrazoles” (FMC CORPORATION, priority 2014, dated 2019)

How the values were obtained:
Test in all cases: Test E pre-/postemergence greenhouse test, plant response rating 0-100
Format in all cases: in vivo
[1] = test system: goosegrass (Eleusine indica); settings: Preemergence, scale 0 to 100
[2] = test system: johnsongrass (Sorghum halepense); settings: Preemergence, scale 0 to 100
[3] = test system: kochia (Kochia scoparia); settings: Preemergence, scale 0 to 100
Summary of the method: (§1)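 Rated visually against controls 14-21 days after treatment on a 0-100 scale (100 = complete control). Pre- and postemergence sprays used a non-phytotoxic solvent mixture with surfactant. Preemergence seeds were in silt loam; postemergence plants were in peat-based medium at the 1- to 4-leaf stage (2-18 cm).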

[4] = test system: velvetleaf (Abutilon theophrasti); settings: Preemergence, scale 0 to 100
Summary of the method: as §1

[5] = test system: yellow nutsedge (Cyperus esculentus); settings: Preemergence, scale 0 to 100
[6] = test system: smartweed (ladysthumb smartweed, Polygonum persicaria); settings: scale 0 to 100; for Smartweed plant response rating: Preemergence

Row | Structure (SMILES) | Goosegrass plant response rating ([1]; 31 g ai/ha) | Goosegrass plant response rating ([1]; 125 g ai/ha) | Goosegrass plant response rating ([1]; 250 g ai/ha) | Goosegrass plant response rating ([1]; 500 g ai/ha) | Johnsongrass plant response rating ([2]; 31 g ai/ha) | Johnsongrass plant response rating ([2]; 62 g ai/ha) | Johnsongrass plant response rating ([2]; 125 g ai/ha) | Johnsongrass plant response rating ([2]; 250 g ai/ha) | Johnsongrass plant response rating ([2]; 500 g ai/ha) | Kochia plant response rating ([3]; 31 g ai/ha) | Kochia plant response rating ([3]; 62 g ai/ha) | Kochia plant response rating ([3]; 125 g ai/ha) | Kochia plant response rating ([3]; 250 g ai/ha) | Kochia plant response rating ([3]; 500 g ai/ha) | Velvetleaf plant response rating ([4]; 31 g ai/ha) | Velvetleaf plant response rating ([4]; 62 g ai/ha) | Velvetleaf plant response rating ([4]; 125 g ai/ha) | Velvetleaf plant response rating ([4]; 250 g ai/ha) | Velvetleaf plant response rating ([4]; 500 g ai/ha) | Nutsedge, Yellow plant response rating ([5]; 31 g ai/ha) | also measured
1 | O=C(c1ccccc1)c1cn(CO)nc1-c1cc(Cl)cc(Cl)c1 [Compound 15, [3-(3,5-dichlorophenyl)-1-(hydroxymethyl)-1H-pyrazol-4-yl]phenylmethanone] | 0 | 0 | 0 | 0 | 0 | 0 | 0 | 0 | 0 | 0 | 40 | 20 | 75 | 80 | 20 | 25 | 35 | 65 | 100 | 15 | Nutsedge, Yellow plant response rating ([5]; 62 g ai/ha): 35; Nutsedge, Yellow plant response rating ([5]; 125 g ai/ha): 10; Nutsedge, Yellow plant response rating ([5]; 250 g ai/ha): 0; Nutsedge, Yellow plant response rating ([5]; 500 g ai/ha): 0; Smartweed plant response rating ([6]; 31 g ai/ha): 0; Smartweed plant response rating ([6]; 62 g ai/ha): 0; Smartweed plant response rating ([6]; 125 g ai/ha): 0; Smartweed plant response rating ([6]; 250 g ai/ha): 100; Smartweed plant response rating ([6]; 500 g ai/ha): 100
2 | O=C(c1ccccc1)c1cn(S(=O)(=O)CCl)nc1-c1cc(Cl)cc(Cl)c1 [Compound 1] | 0 | 0 | 0 | 0 | 0 | 0 | 0 | 20 | 20 | 0 | 0 | 0 | 50 | 98 | 35 | 40 | 50 | 35 | 50 | 0 | Goosegrass plant response rating ([1]; 62 g ai/ha): 0; Nutsedge, Yellow plant response rating ([5]; 62 g ai/ha): 0; Nutsedge, Yellow plant response rating ([5]; 125 g ai/ha): 0; Nutsedge, Yellow plant response rating ([5]; 250 g ai/ha): 0; Plant response rating, Smartweed ([6]; Postemergence, 500 g ai/ha): 85; Smartweed plant response rating ([6]; 31 g ai/ha): 0; Smartweed plant response rating ([6]; 125 g ai/ha): 98; Smartweed plant response rating ([6]; 250 g ai/ha): 98; Smartweed plant response rating ([6]; 500 g ai/ha): 98
